Results taken from PMC4226674, “A phase I trial of the HIV protease inhibitor nelfinavir in adults with solid tumors” (Oncotarget, 2014).
Where two headings read alike, the source gives them in different places.

How the values were obtained:
[1] = Experimental: This single institution, open-label, Phase Ia dose escalation study was performed to establish the MTD and DLT of nelfinavir in subjects with advanced refractory solid tumors. The study used a modified Fibonacci scheme, in which cohorts of three to six subjects were entered at each dose level until two patients developed DLT. If two or more subjects encountered DLT, then the MTD was exceeded. The MTD was defined as the dose level at which less than 2 of 6 subjects experienced DLT. Each cycle lasted 21 days. Up to 6 additional patients were allowed to be enrolled at the MTD in order to better establish potential rates of toxicity.
Physical examinations, toxicity assessments and laboratory analyses were conducted weekly during cycle 1 and then every three weeks beginning cycle 2.
The starting dose of nelfinavir was the FDA-approved dose in HIV patients of 1250 mg twice daily, which comprised dose level (DL) 1. Dose escalation proceeded in 625 mg, twice-daily increments (DL2: 1875 mg, DL3: 2500 mg, DL4: 3125 mg, DL5: 3750 mg, DL6: 4375 mg).
Toxicity was graded according to the National Cancer Institute Common Toxicity Criteria, version 3.0.

[2] = Nelfinavir plasma pharmacokinetics (HPLC-MS, noncompartmental); type: in vivo, human
Experimental: To determine CYP3A4 phenotype, a single 3 mg oral dose of midazolam hydrochloride, a CYP3A4 substrate, was administered at day -2 (2 days prior to commencing nelfinavir) and again at steady state (cycle 1 day 20). Serial venous blood samples were collected at 15, 30, 60, 120, 180, 240, and 300 minutes following administration of midazolam. Nelfinavir pharmacokinetics (PK) were obtained after single dose administration, cycle 1 day 1, and again at steady state, cycle 2 day 1. Serial venous blood samples were collected pre-dose and at 1, 2, 3, 4, 5, 6 and 12 hours after administration. Plasma concentrations of midazolam and nelfinavir were determined with a validated assay employing high performance liquid chromatography (HPLC) with mass spectrometric detection. Noncompartmental pharmacokinetic analyses were performed with WinNonlin 5.2 (Pharsight). Individual concentration-time profiles were constructed for each patient, course and drug resulting in four profiles per patient (two each for midazolam and nelfinavir). The maximum plasma concentration (Cmax) and the time of maximum plasma concentration (Tmax) were the observed values. Drug exposure was estimated using the area under the concentration-time curve (AUC). The area under the concentration-time curve (AUC) from time zero to the time of the final quantifiable sample (AUClast) was calculated using the linear trapezoidal method. The area under the concentration-time curve from time zero to infinity (AUCinf) was calculated by extrapolation, using the terminal rate constant from the last measurable concentration.

[3] = tested on: P-AKT S473, P-EIF2 alpha S51, ATF3, CHOP in PBMCs; test: Surrogate biomarkers in PBMCs by immunoblotting; type: in vivo, human
Experimental: (§1) Blood was collected in Vacutainer CPT collection tubes with sodium heparin (BD Biosciences cat# 362753) and mononuclear cells were isolated as per the manufacturer's instructions. PBMCs were washed with PBS and lysed in 2X LSB buffer, aliquotted and stored at -80°C. For analysis, equal amounts of protein per sample were run on 10-12% SDS-PAGE gels, then transferred onto nitrocellulose membranes. Membranes were blocked in 5% milk in TBS + 0.1% tween (TBST) and incubated with primary antibody diluted in 5% BSA in TBST at 4 degrees overnight. The next day membranes were washed, incubated with HRP-linked secondary antibody and developed using ECL chemiluminescent reagent (GE Healthcare) and X-ray film as per the manufacturers instructions. […] Antibodies to CHOP sc-7351 and ATF3 sc-188 were from Santa Cruz Biotechnology (Santa Cruz, CA).

P-AKT S473 = test: Akt activation in PBMCs by immunoblotting; type: in vivo, human
Experimental: as §1

ATF3 and/or CHOP = test: ER stress markers ATF3/CHOP in PBMCs by immunoblotting; type: in vivo, human; conditions: DL4 (3125 mg bid)
Experimental: Peripheral blood mononuclear cells (PBMCs) were collected at baseline, and then twice after starting nelfinavir: cycle 1 day 7 and cycle 1 day 42. Levels of P-AKT S473, P-EIF2 alpha S51, ATF3 and CHOP in PBMCs before and after nelfinavir were analyzed by immunoblotting. Blood was collected in Vacutainer CPT collection tubes with sodium heparin (BD Biosciences cat# 362753) and mononuclear cells were isolated as per the manufacturer's instructions. PBMCs were washed with PBS and lysed in 2X LSB buffer [33], aliquotted and stored at -80°C. For analysis, equal amounts of protein per sample were run on 10-12% SDS-PAGE gels, then transferred onto nitrocellulose membranes. Membranes were blocked in 5% milk in TBS + 0.1% tween (TBST) and incubated with primary antibody diluted in 5% BSA in TBST at 4 degrees overnight. The next day membranes were washed, incubated with HRP-linked secondary antibody and developed using ECL chemiluminescent reagent (GE Healthcare) and X-ray film as per the manufacturers instructions. The amount of P-AKT S473, P-EIF2 alpha S51, ATF3 or CHOP in the PBMCs at C1D7 and C1D42 were compared against a baseline sample for each patient, (prior to receiving nelfinavir). Antibodies against P-AKT S473 #4060, P-EIF2 alpha S51 #3398 and β-Actin #4970 were from Cell Signaling Technology (Danvers, MA). […]

liposarcoma = conditions: cited from earlier work
[4] = Cycle 2 Day 1 steady state, 3125 mg bid, mean, n=6

Cc1c(O)cccc1C(=O)N[C@@H](CSc1ccccc1)[C@H](O)CN1C[C@H]2CCCC[C@H]2C[C@H]1C(=O)NC(C)(C)C [nelfinavir, Nelfinavir]
MTD relative to FDA-approved dose for HIV (fold/times) ([1]; 3125 mg bid vs doses typically used in HIV patients): 2.5 | onset of nelfinavir-induced neutropenia ([1]; human, in vivo): ≤ 3 days | recovery of neutropenia after discontinuation of drug ([1]; human, in vivo): ≤ 3 days | ALT increase, treatment-related AE in cycle 1 ([1]; human, in vivo, 21 days): 5 (20.8) N (%) | Abdominal pain, treatment-related AE in cycle 1 ([1]; human, in vivo, 21 days): 1 (4.2) N (%) | Anemia, treatment-related AE in cycle 1 ([1]; human, in vivo, 21 days): 10 (41.7) N (%) | Anorexia, treatment-related AE in cycle 1 ([1]; human, in vivo, 21 days): 1 (4.2) N (%) | Belching, treatment-related AE in cycle 1 ([1]; human, in vivo, 21 days): 1 (4.2) N (%) | Bloating/, treatment-related AE in cycle 1 ([1]; human, in vivo, 21 days): 3 (12.5) N (%) | Cholesterol increase, treatment-related AE in cycle 1 ([1]; human, in vivo, 21 days): 3 (12.5) N (%) | Dehydration, treatment-related AE in cycle 1 ([1]; human, in vivo, 21 days): 2 (8.3) N (%) | Depression, treatment-related AE in cycle 1 ([1]; human, in vivo, 21 days): 1 (4.2) N (%) | Diarrhea, treatment-related AE in cycle 1 ([1]; human, in vivo, 21 days): 12 (50.0) N (%) | Fatigue, treatment-related AE in cycle 1 ([1]; human, in vivo, 21 days): 5 (20.8) N (%) | Flatulence, treatment-related AE in cycle 1 ([1]; human, in vivo, 21 days): 1 (4.2) N (%) | Heartburn, treatment-related AE in cycle 1 ([1]; human, in vivo, 21 days): 1 (4.2) N (%) | Hyperglycemia, treatment-related AE in cycle 1 ([1]; human, in vivo, 21 days): 4 (16.7) N (%) | Hyperkalemia, treatment-related AE in cycle 1 ([1]; human, in vivo, 21 days): 3 (12.5) N (%) | Hypoalbuminemia, treatment-related AE in cycle 1 ([1]; human, in vivo, 21 days): 5 (20.8) N (%) | Hypokalemia, treatment-related AE in cycle 1 ([1]; human, in vivo, 21 days): 1 (4.2) N (%) | Hyponatremia, treatment-related AE in cycle 1 ([1]; human, in vivo, 21 days): 2 (8.3) N (%) | Hypophosphatemia, treatment-related AE in cycle 1 ([1]; human, in vivo, 21 days): 1 (4.2) N (%) | Hypothyroid, treatment-related AE in cycle 1 ([1]; human, in vivo, 21 days): 1 (4.2) N (%) | Insomnia, treatment-related AE in cycle 1 ([1]; human, in vivo, 21 days): 1 (4.2) N (%) | Leukopenia, treatment-related AE in cycle 1 ([1]; human, in vivo, 21 days): 4 (16.7) N (%) | Lymphopenia, treatment-related AE in cycle 1 ([1]; human, in vivo, 21 days): 10 (41.7) N (%) | Nausea, treatment-related AE in cycle 1 ([1]; human, in vivo, 21 days): 2 (8.3) N (%) | Neutropenia, treatment-related AE in cycle 1 ([1]; human, in vivo, 21 days): 5 (20.8) N (%) | Palpitations, treatment-related AE in cycle 1 ([1]; human, in vivo, 21 days): 1 (4.2) N (%) | Thrombocytopenia, treatment-related AE in cycle 1 ([1]; human, in vivo, 21 days): 2 (8.3) N (%) | anemia, treatment-related AE in cycle 1 ([1]; human, in vivo, 21 days): 41.7% | diarrhea, treatment-related AE in cycle 1 ([1]; human, in vivo, 21 days): 50% | fatigue, treatment-related AE in cycle 1 ([1]; human, in vivo, 21 days): 20.8% | hypoalbuminemia, treatment-related AE in cycle 1 ([1]; human, in vivo, 21 days): 20.8% | lymphopenia, treatment-related AE in cycle 1 ([1]; human, in vivo, 21 days): 41.7% | dose limiting toxicity (DLT) ([1]; human, in vivo, po): grade 4 neutropenia | cumulative toxicities ([1]; in vivo): No cumulative toxicities were observed | maximum tolerated dose (MTD) ([1]; oral, twice daily, 21-day cycles, advanced solid tumors): 3125 mg | CL_F ([2]; Cycle 1 Day 1, first oral dose 3125 mg, mean, n=10): 49,020 mL/h | CL_F [2, 4]: 59,826 mL/h | Evening Trough [2, 4]: 2883 ng/mL | Morning Trough [2, 4]: 4597 ng/mL | doses above which PK showed potential non-linearity ([2]; human, in vivo): 1875 to 2500 mg | AUC(0-inf) ([2]; human, in vivo, po, 1250 mg): 24500 ng·h/mL | AUC(0-t) ([2]; human, in vivo, po, 1250 mg): 16600 ng·h/mL | CL_F ([2]; human, in vivo, po, 1250 mg): 52,714 mL/h | Cmax ([2]; human, in vivo, po, 1250 mg): 2390 ng/mL | Tmax ([2]; human, in vivo, po, 1250 mg): 3.7 h | half-life ([2]; human, in vivo, po, 1250 mg): 6.6 h | AUC(0-inf) ([2]; human, in vivo, po, 1875 mg): 189000 ng·h/mL | AUC(0-t) ([2]; human, in vivo, po, 1875 mg): 73900 ng·h/mL | CL_F ([2]; human, in vivo, po, 1875 mg): 21,034 mL/h | Cmax ([2]; human, in vivo, po, 1875 mg): 10400 ng/mL | Tmax ([2]; human, in vivo, po, 1875 mg): 3.8 h | half-life ([2]; human, in vivo, po, 1875 mg): 11.9 h | AUC(0-inf) ([2]; human, in vivo, po, 2500 mg): 79400 ng·h/mL | AUC(0-t) ([2]; human, in vivo, po, 2500 mg): 61000 ng·h/mL | CL_F ([2]; human, in vivo, po, 2500 mg): 55,342 mL/h | Tmax ([2]; human, in vivo, po, 2500 mg): 6 h | half-life ([2]; human, in vivo, po, 2500 mg): 4.5 h | AUC(0-inf) ([2]; human, in vivo, po, 3750 mg): 131000 ng·h/mL | AUC(0-t) ([2]; human, in vivo, po, 3750 mg): 61500 ng·h/mL | CL_F ([2]; human, in vivo, po, 3750 mg): 52,114 mL/h | Cmax ([2]; human, in vivo, po, 3750 mg): 7920 ng/mL | Tmax ([2]; human, in vivo, po, 3750 mg): 2.7 h | half-life ([2]; human, in vivo, po, 3750 mg): 9.2 h | Cmax ([2]; human, in vivo, Cycle 1 Day 1, first oral dose 2500 mg, mean, n=3, read-out: Cmax): 9740 ng/mL | AUC(0-inf) ([2]; human, in vivo, Cycle 1 Day 1, first oral dose 3125 mg, mean, n=10, read-out: AUCinf): 140000 ng·h/mL | half-life ([2]; human, in vivo, Cycle 1 Day 1, first oral dose 3125 mg, mean, n=10, read-out: T1/2 (converted)): 9.2 h | AUC(0-t) ([2]; human, in vivo, Cycle 1 Day 1, first oral dose 3125 mg, mean, n=13, read-out: AUClast): 56900 ng·h/mL | Cmax ([2]; human, in vivo, Cycle 1 Day 1, first oral dose 3125 mg, mean, n=13, read-out: Cmax): 7640 ng/mL | Tmax ([2]; human, in vivo, Cycle 1 Day 1, first oral dose 3125 mg, mean, n=13, read-out: Tmax): 4.8 h | Cmax ([2]; human, in vivo, Cycle 2 Day 1 steady state, 3125 mg bid, mean, n=7, read-out: Cmax): 9550 ng/mL | Tmax ([2]; human, in vivo, Cycle 2 Day 1 steady state, 3125 mg bid, mean, n=7, read-out: Tmax): 3.3 h | AUC(0-t) ([2]; human, in vivo, Cycle 2 Day 1 steady state, 3125 mg bid, mean, read-out: AUClast): 60000 ng·h/mL | change of overall exposure or maximal plasma concentration with dose ([2]; in vivo): No increase | dose linearity of first dose pharmacokinetics ([2]; in vivo, po): Non-linear pharmacokinetics | biomarker changes in PBMCs from baseline ([3]; DL1 or DL2 (1250, 1875 mg bid)): no biomarker changes | subjects with decrease in P-AKT S473 or increase in EIF2 alpha S51 phosphorylation ([3]; DL3 (2500 mg bid)): 1 out of 3 | subjects showing changes in 3 of 4 biomarkers evaluated ([3]; DL4 (3125 mg bid)): 3 | effect on markers of ER stress in peripheral blood mononuclear cells ([3]; in vivo): induced markers of ER stress | subject PBMCs showing a decrease in P-AKT S473 (P-AKT S473; DL4 (3125 mg bid), after 7 or 42 days): 45% | effect on AKT in peripheral blood mononuclear cells (P-AKT S473; in vivo): inhibited AKT | samples showing an increase in ATF3 and/or CHOP (ATF3 and/or CHOP): 27% | MTD in liposarcoma patients (liposarcoma; Phase I trial): MTD was not reached | dose above which PK non-linearity was found (liposarcoma; liposarcoma patients): above 3000 mg bid | dose at which auto-induction was noted (highest dose evaluated) (liposarcoma; liposarcoma patients): 4125 mg BID
